The results in this text go back to patent publication US10292972B1, “Pharmaceutical composition for treating cancer and a method thereof” (King Abdulaziz University, priority 2017, dated 2019).

As usually defined, the IC50 is the concentration at which inhibition is half-maximal. As a reminder, the viability is a per cent measure of how many cells are alive, often set against a control.

The subject of assay [1] is MCF7 breast cancer cells. Description: cells. It is filed as cell-based, human. How it is done: (§1) MCF7, a breast cancer cell line was procured from the American Type Culture Collection (ATCC) and propagated in Dulbecco's Modified Eagle's medium (DMEM) supplemented with 10% (v/v) fetal bovine serum (FBS), 100 μg/ml streptomycin and 100 U/ml penicillin at 37° C. in a humidified incubator with 5% CO2. Human pancreatic cell lines, AsPC1 and PANC1, were obtained from the American Type Culture Collection (ATCC). AsPC1 cell line was grown in RPMI-1640 medium supplemented with 10% (v/v) fetal bovine serum (FBS), 100 μg/ml streptomycin and 100 U/ml penicillin. PANC1 cell line was cultured in DMEM supplemented with 10% (v/v) fetal bovine serum (FBS), 100 μg/ml streptomycin and 100 U/ml penicillin.
MCF7 cells (2×10^4 cells/well) were sub-cultured in 24-well plate and incubated at 37° C. in a humidified incubator with 5% CO2 for 20 hrs. […] After the drug treatment, cells were analysed under phase contrast microscope. […]
MCF7 cells (2×10^4 cells/well) were treated with 3 μM, 30 μM, 300 μM, 600 μM, 1.5 mM of isopicrinine at 37° C. in a humidified incubator with 5% CO2 for 20 hrs. After the drug treatment, cells were analysed under phase contrast microscope. Cytotoxicity was detected at 300 μM concentration onwards in all the samples. […] The nuclear morphological changes, which are mainly associated with apoptosis were analysed by Hoechst 33342 staining. […]

For a further assay, the system named is AsPC1 cell line. The experiment in a line: cells. The format is cell-based. Conditions: Homo sapiens, ASPC1, 24 h, read-out: % Cell viability. How it is done: as §1
(§2) PANC1 and AsPC1 cells (1.3×10^4 cells/well) were sub-cultured in 96-well plates and incubated at 37° C. in a humidified incubator with 5% CO2 for 24 hrs. Varying concentrations of isopicrinine (i.e., 0, 30 μM, 75 μM, 150 μM and 300 μM were added to the cultured cells and further incubated at 37° C. in a humidified incubator with 5% CO2 for 24 hrs. The cell viability was determined using MTT (3-(4,5-dimethylthiazol-2-yl)-2,5-diphenyltetrazolium bromide) assay by following the manufacturer's instructions. Briefly, 20 μl/well of MTT was added to the cells and plates were incubated for 4 hrs. After the incubation, media along with the MTT was removed and 150 μl/well of isopropanol was added and further incubated for 15 min on shaker incubator. Spectrophotometer readings were taken at 450 nm and 630 nm. This assay is based on the conversion of yellow tetrazolium salt MTT to purple formazan crystal by metabolically active cells. The amount of formazan produced is proportional to the number of viable cells.

The next assay deals with PANC1 cell line. The experiment in a line: cells. The format is cell-based. Conditions: Homo sapiens, PANC-1, 24 h, read-out: % Cell Viability. The method, then: as §1, §2
In assay [2] the test system is MCF7 breast cancer cells. The experiment in a line: Hoechst 33342 staining of nuclear morphological changes (apoptosis). The format is cell-based, human. Conditions: MCF7, 150 μM, 24 hrs, FIG. 3B. How it is done:
MCF7 cells (2×10^4 cells/well) were treated with 3 μM, 30 μM, 300 μM, 600 μM, 1.5 mM of isopicrinine at 37° C. in a humidified incubator with 5% CO2 for 20 hrs. After the drug treatment, cells were analysed under phase contrast microscope. Cytotoxicity was detected at 300 μM concentration onwards in all the samples. […] The nuclear morphological changes, which are mainly associated with apoptosis were analysed by Hoechst 33342 staining. Briefly, MCF7 cells (2×10^4 cells/well) were grown on coverslips and treated with 150 μM of purified alkaloid for 24 hrs. The cells were washed with Dulbecco's phosphate buffer saline (DPBS) and fixed with 100% methanol for 15 min at room temperature. Cells were washed with DPBS and stained with Hoechst 33342 for 15 min at room temperature. The cells were washed thrice with DPBS and analysed under fluorescent microscope (Nikon, Japan).

With `C/C=C1\CN2[C@H]3C[C@@H]1[C@@H](C(=O)OC)[C@]14C[C@H]2O[C@]31Nc1ccccc14` [isopicrinine], the IC50 with MCF7 breast cancer cells [1] (Homo sapiens, MCF7, 20 h, read-out: IC50 value (cytotoxic activity against MCF7 cells)) is 240 µM. Besides, the “cell morphology after treatment with high doses” value with MCF7 breast cancer cells [1] (MCF7, FIGS. 2D-2F (300, 600, 1,500 μM)) was “cell shrinkage, cellular detachment and loss of adherent morphology”. Moreover, in the assay on AsPC1 cell line, the viability at 30 µM amounted to 87.7%, the viability at 75 µM stood at 55.9%, the viability at 150 µM turned out to be 53.5% and the viability at 300 µM was 42.4%. In the assay on PANC1 cell line, the viability at 30 µM came out at 74.5%, the viability at 75 µM worked out at 70.8%, the viability at 150 µM amounted to 69.6% and the viability at 300 µM worked out at 64.6%. Also, in the assay with MCF7 breast cancer cells [2], the “nuclear morphology, Hoechst 33342 staining” value was “chromatin condensation and nuclear fragmentation”.
